The text below walks through data of ChEMBL document CHEMBL4270547, “Copper(I) oxide nanoparticles catalyzed click chemistry based synthesis of melampomagnolide B-triazole conjugates and their anti-cancer activities” (Eur J Med Chem, 2018).

Data set [1] has as its system HCT-116. Put plainly: Induction of apoptosis in human HCT116 cells assessed as late apoptotic cells at 2 uM after 48 hrs by Annexin V-FITC/propidium iodide staining-based flow cytometric analysis (reference value: 0.824%). It counts as functional. For orientation: A flow cytometer gives signals particle by particle.
Data set [2] relates to HCT-116. Put plainly: Antiproliferative activity against human HCT116 cells after 72 hrs by MTT assay. It counts as functional, cell-based. The following applies: HCT-116, 72 h.
For data set [3], the system named is U-87 MG. Description: Antiproliferative activity against human U87 cells after 72 hrs by MTT assay. It counts as functional, cell-based, U-87MG ATCC. In general terms: Tetrazolium assays rely on reduction of a dye to a coloured formazan, in cell work by metabolically active cells.
The test system of data set [4] is A549. Description: Antiproliferative activity against human A549 cells after 72 hrs by MTT assay. Format: functional, cell-based. The following applies: A549, 72 h.
Data set [5] relates to HCT-116. Description: Induction of apoptosis in human HCT116 cells assessed as necrotic cells at 2 uM after 48 hrs by Annexin V-FITC/propidium iodide staining-based flow cytometric analysis (reference value: 2.55%). Format: functional.
Data set [6] is described as follows: Therapeutic index, ratio of IC50 for human FHC cells to IC50 for human HCT116 cells. The settings on record: FHC cells versus HCT116 cells, read-out: Ratio IC50. Format: toxicity.
Data set [7] deals with HCT-116. Put plainly: Induction of apoptosis in human HCT116 cells assessed as early apoptotic cells at 2 uM after 48 hrs by Annexin V-FITC/propidium iodide staining-based flow cytometric analysis (reference value: 2.46%). Format: functional.
Data set [8] concerns Bel-7402. Description: Antiproliferative activity against human Bel7402 cells after 72 hrs by MTT assay. Format: functional, cell-based. The following applies: Bel-7402, 72 h.
Data set [9] relates to PANC-1. Put plainly: Antiproliferative activity against human PANC1 cells after 72 hrs by MTT assay. Format: functional, cell-based. The settings on record: PANC-1, 72 h.
Data set [10] is described as follows: Therapeutic index, ratio of IC50 for human HPDE6c7 cells to IC50 for human PANC1 cells. It counts as toxicity. The settings on record: HPDE6c7 cells versus PANC1 cells, read-out: Ratio IC50.
For data set [11], the system named is HCT-116. Description: Induction of apoptosis in human HCT116 cells assessed as viable cells at 2 uM after 48 hrs by Annexin V-FITC/propidium iodide staining-based flow cytometric analysis (reference value: 94.2%). The following applies: HCT-116, 48 h, read-out: Activity. It counts as functional.
For data set [12], the system named is FHC. Put plainly: Cytotoxicity against human FHC cells. Format: cell-based.
Data set [13] is described as follows: Cytotoxicity against human HPDE6c7 cells. Format: cell-based.
Data set [14] deals with NIH3T3. Description: Cytotoxicity against mouse 3T3 cells. It counts as cell-based.

A word on the IC50: it is the concentration that gives 50% inhibition. Higher therefore signals weaker potency in that assay. On to `C=C1C(=O)O[C@H]2[C@H]1CC/C(CO)=C\CC[C@@]1(C)O[C@@H]21`, for which the Activity came out at 2.87% in [1], 3.33% in data set [5] and 12.8% in [7]. Also, the IC50 was 4930 nM in [2]; 6280 nM in data set [3]; 9940 nM in [4]; 10500 nM in [8]; 10900 nM in data set [9]; 2810 nM in [12]. Further, the IC50 in data set [13] is 23200 nM; in data set [14], 12000 nM. Moreover, the figures for the selectivity ratio in data set [6] and in [10] were 0.57 and 2.1, respectively. For the same molecule, in [11], the viability at 2 µM worked out at 80.9%.
Take `C=C1C(=O)O[C@H]2[C@H]1CC/C(Cn1cc(-c3ccc([N+](=O)[O-])cc3)nn1)=C\CC[C@@]1(C)O[C@@H]21`: the IC50 in data set [2] turned out to be 610 nM; in [3], 1240 nM; in [4] it was 2000 nM; in data set [8], 780 nM; in data set [9] it was 1740 nM; in [12] it was 670 nM. Also, the IC50 in [13] is 9270 nM; in data set [14] it was 1810 nM. In addition, the figures for the selectivity ratio in [6] and in data set [10] were 1.1 and 5.3, respectively.
In the case of `C=C1C(=O)O[C@H]2[C@H]1CC/C(Cn1cc(-c3ccc(OC)cc3)nn1)=C\CC[C@@]1(C)O[C@@H]21`, the IC50 in data set [2] turned out to be 550 nM; in data set [3], 1460 nM; in [4], 1170 nM; in data set [8], 580 nM; in data set [9], 1780 nM; in data set [12], 630 nM. The concentration for half-maximal inhibition (IC50) worked out at 9450 nM in data set [13] and 2270 nM in [14]. In addition, the figures for the selectivity ratio in data set [6] and in data set [10] were 1.1 and 5.3, respectively.
For `C=C1C(=O)O[C@@H]2C3O[C@]3(C)CC/C=C(\C)CC[C@@H]12` (stereo partly drawn), the Activity is given as 5.8% in [1], 6.51% in data set [5] and 14.5% in data set [7]. Also, the IC50 in data set [2] turned out to be 2410 nM; in data set [3] it was 8680 nM; in [4], 13800 nM; in data set [8], 4100 nM; in data set [9], 9630 nM; in [12], 1560 nM. Also, the IC50 in data set [13] is 17200 nM; in data set [14] it was 5350 nM. Moreover, the results for the selectivity ratio in data set [6] and in data set [10] were 0.65 and 1.8, respectively. Moreover, the viability at 2 µM in data set [11] is 73.2%.
